This note sets out measurements from patent US20190169181A1, “FUMAGILLOL COMPOUNDS AND METHODS OF MAKING AND USING SAME” (Zafgen, Inc., priority 2016, published 2019).

The target of one assay is T1, recombinant human MetAP2 (Homo sapiens, UniProt P50579).
T1 construct: Flag; made in house
Nature of the assay: Recombinant human MetAP2 enzyme inhibition assay (MAS peptide / amino acid oxidase / Amplex Ultrared readout). Type of assay: biochemical. The following applies: Flag tagged human recombinant MetAP2, 25 minutes at 25° C.

Assay [1] concerns Diet Induced Obese (DIO) C57BL/6 mice. Nature of the assay: 10 day DIO mouse model, weight loss vs. vehicle. The following applies: 240 h; for inhibition in vivo at 0.3 mg/kg: 0.3 mpk sc once a day for 10 days; for inhibition in vivo at 1 mg/kg: 1.0 mpk sc once a day for 10 days. Type of assay: in vivo. The procedure, abridged:
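Male DIO C57BL/6 mice on 60% fat diet, vehicle-acclimated 3 days, then given compound at 0.3 or 1.0 mg/kg SC (10% DMSO in water) once daily for 10 days. Body weight and food intake recorded daily; weight loss versus vehicle, with hematology and blood chemistry on Day 11.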

Assay [2] concerns rat DIO model (Sprague Dawley rats on 45% High Fat diet). Nature of the assay: 11 day rat DIO model, weight loss vs. vehicle. Type of assay: in vivo. The following applies: for Rat @ 0.3 mpk sc (%) weight loss vs. vehicle: 0.3 mpk sc once a day for 11 days; for Rat @ 1.0 mpk sc (%) weight loss vs. vehicle: 1.0 mpk sc once a day for 11 days. The source says: The objective of this study design is to investigate the efficacy of disclosed compounds in an 11 day rat DIO model used to screen compounds for pharmacologic efficacy on endpoints related to obesity and metabolism. Effects on body weight, food intake, hematology and blood chemistries were the primary readouts of this study design. Male Sprague Dawley rats, approximately 8 weeks of age, were ordered from a certified vendor and housed on irradiated corncob bedding in micro-isolator cages, on a 12-hour light-dark cycle (0700-1900) at 68-74° F. and 30-70% humidity. Rats were fed Research Diets D12451 (45% High Fat) and provided water ad libitum. Rats were received and housed in the facility for at least two or three weeks prior to start of test article administration. On Day −4 or −3, rats were randomized into study groups based on body weight and body weights were continued to be recorded daily for the duration of the study. Daily food intake was assessed starting on Study Day −2 by weighing the hopper including the food to avoid loss of food in transfer.
Compounds were formulated into a 100% DMSO stock (at 9 mg/mL) prior to the start, and further diluted into the target working concentration using the vehicle of 10% DMSO in water. Prior to test article administration, starting on Day −3 a dosing acclimation occurred with all animals receiving a subcutaneous injection of vehicle (10% DMSO) only for 3 days. Starting on Day 1, test compounds or vehicle were administered based on individual body weight, subcutaneously, once a day for 11 days. All animals were sacrificed on Day 11, approximately 2 hours following the final dosing on Day 11. After sacrifice, whole blood was collected and analyzed for hematology and blood chemistry parameters.
Compounds were tested for weight loss vs. vehicle at 0.3 and 1.0 mpk sc (mg per kg animal weight delivered subcutaneously), and the results are shown in Table 2 below.

Structures can show the parent of a compound that is named as a salt.

T1 sequence (P50579 whole entry): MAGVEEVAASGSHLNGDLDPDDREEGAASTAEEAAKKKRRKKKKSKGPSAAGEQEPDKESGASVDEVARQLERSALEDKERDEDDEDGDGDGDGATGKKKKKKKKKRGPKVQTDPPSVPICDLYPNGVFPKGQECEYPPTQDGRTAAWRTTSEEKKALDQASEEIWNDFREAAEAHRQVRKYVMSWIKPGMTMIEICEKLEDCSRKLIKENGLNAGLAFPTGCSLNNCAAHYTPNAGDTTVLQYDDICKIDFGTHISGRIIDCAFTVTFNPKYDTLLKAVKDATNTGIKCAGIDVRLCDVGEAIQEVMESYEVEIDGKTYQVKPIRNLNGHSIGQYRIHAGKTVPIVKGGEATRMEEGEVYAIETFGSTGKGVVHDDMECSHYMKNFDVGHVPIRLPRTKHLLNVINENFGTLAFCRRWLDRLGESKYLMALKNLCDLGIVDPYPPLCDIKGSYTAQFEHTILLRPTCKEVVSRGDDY

Broadly, the IC50 is the concentration at which inhibition is half-maximal. As a reminder, the inhibition in vivo is how much of the control response was suppressed. As for `CNc1nnc([C@@H](NC(=O)O[C@@H]2CC[C@]3(CO3)[C@@H]([C@@]3(C)O[C@@H]3CC=C(C)C)[C@@H]2OC)C(C)C)o1` [Example 2, (3R,5S,6R)-5-methoxy-4-((2R,3R)-2-methyl-3-(3-methylbut-2-enyl)oxiran-2-yl)-1-oxaspiro[2.5]octan-6-yl (S)-2-methyl-1-(5-(methylamino)-1,3,4-oxadiazol-2-yl)propylcarbamate], at recombinant human MetAP2, the 50% inhibitory concentration (IC50) is below 50 nM. Besides, in assay [1], the inhibition in vivo at 0.3 mg/kg worked out at 5.4% and testing at 1 mg/kg gave an inhibition in vivo of 4.6%. In assay [2], the “Rat @ 0.3 mpk sc (%) weight loss vs. vehicle” value is 0.6% and the “Rat @ 1.0 mpk sc (%) weight loss vs. vehicle” value was found to be 0.9%.

Take `CO[C@@H]1[C@H](OC(=O)N[C@@H](c2cn(C[C@H]3CCN(C)C3)cn2)C(C)C)CC[C@]2(CO2)[C@H]1[C@@]1(C)O[C@@H]1CC=C(C)C` [Example 12, (3R,4S,5S,6R)-5-methoxy-4-((2R,3R)-2-methyl-3-(3-methylbut-2-enyl)oxiran-2-yl)-1-oxaspiro[2.5]octan-6-yl (R)-2-methyl-1-(1-(((S)-1-methylpyrrolidin-3-yl)methyl)-1H-imidazol-4-yl)propylcarbamate formate]: the IC50 at recombinant human MetAP2 was 50 to 500 nM. Moreover, at 0.3 mg/kg the inhibition in vivo in assay [1] was 9.5%. In assay [2], the “Rat @ 0.3 mpk sc (%) weight loss vs. vehicle” value stood at 12.9% and the “Rat @ 1.0 mpk sc (%) weight loss vs. vehicle” value was 18.8%.

`CO[C@@H]1[C@H](OC(=O)N[C@H](c2nccn2C[C@@H]2CCCN2C)C(C)C)CC[C@]2(CO2)[C@H]1[C@@]1(C)O[C@@H]1CC=C(C)C` [Example 6, (3R,4S,5S,6R)-5-methoxy-4-((2R,3R)-2-methyl-3-(3-methylbut-2-enyl)oxiran-2-yl)-1-oxaspiro[2.5]octan-6-yl (S)-2-methyl-1-(1-(((S)-1-methylpyrrolidin-2-yl)methyl)-1H-imidazol-2-yl)propylcarbamate formate]: at recombinant human MetAP2, the half-maximal inhibitory concentration (IC50) was 50 to 500 nM. The inhibition in vivo at 0.3 mg/kg in assay [1] was found to be 6.5%. In assay [2], the “Rat @ 0.3 mpk sc (%) weight loss vs. vehicle” value stood at 0.1% and the “Rat @ 1.0 mpk sc (%) weight loss vs. vehicle” value amounted to 2.1%.

On to `CO[C@@H]1[C@H](OC(=O)N[C@H](Cc2nc(=O)o[nH]2)C(C)C)CC[C@]2(CO2)[C@H]1[C@@]1(C)O[C@@H]1CC=C(C)C` [Example 30, (3R,4S,5S,6R)-5-methoxy-4-((2R,3R)-2-methyl-3-(3-methylbut-2-enyl)oxiran-2-yl)-1-oxaspiro[2.5]octan-6-yl (R)-3-methyl-1-(5-oxo-4,5-dihydro-1,2,4-oxadiazol-3-yl)butan-2-ylcarbamate], for which, on recombinant human MetAP2, the 50% inhibitory concentration (IC50) lay in the range of 50 to 500 nM. Also, in assay [1], at 0.3 mg/kg the inhibition in vivo was 1.4% and 1 mg/kg produced 14.1% inhibition in vivo. In assay [2], the “Rat @ 0.3 mpk sc (%) weight loss vs. vehicle” value was found to be 0.7% and the “Rat @ 1.0 mpk sc (%) weight loss vs. vehicle” value is on record as −0.4%.

`CO[C@@H]1[C@H](OC(=O)N[C@H](c2cn(C[C@H]3CCN(C)C3)cn2)C(C)C)CC[C@]2(CO2)[C@H]1[C@@]1(C)O[C@@H]1CC=C(C)C` [Example 15, (3R,4S,5S,6R)-5-methoxy-4-((2R,3R)-2-methyl-3-(3-methylbut-2-en-1-yl)oxiran-2-yl)-1-oxaspiro[2.5]octan-6-yl ((S)-2-methyl-1-(1-(((S)-1-methylpyrrolidin-3-yl)methyl)-1H-imidazol-4-yl)propyl)carbamate]: the concentration for half-maximal inhibition (IC50) at recombinant human MetAP2 was below 50 nM. Besides, in assay [1], at 0.3 mg/kg the inhibition in vivo was 10.8% and at 1 mg/kg the inhibition in vivo was 8.4%. Further, in assay [2], the “Rat @ 0.3 mpk sc (%) weight loss vs. vehicle” value worked out at 10.6% and the “Rat @ 1.0 mpk sc (%) weight loss vs. vehicle” value turned out to be 16.4%.
